Values of other authors, collected in patent publication US8318452B2, “Solid culture medium for the detection and/or the species discrimination of glycopeptide-resistant enterococci” (priority 2006, dated 2012).

Experiments:
[1] = test system: VanB type glycopeptide-resistant enterococci; details: Type of glycopeptide resistance VanB
[2] = test system: VanC type glycopeptide-resistant enterococci; details: Type of glycopeptide resistance VanC

For teicoplanin, the MIC [1] is given as 0.5 to 1 mg/L and the MIC [2] is given as 0.5 to 1 mg/L.
